We go through 28 molecules from ChEMBL document CHEMBL5365532, “Discovery of Triazinone Derivatives as Novel, Specific, and Direct NLRP3 Inflammasome Inhibitors for the Treatment of DSS-Induced Ulcerative Colitis” (J Med Chem, 2023).

Molecules are shown by their SMILES. pIC50: −log10 of the molar value. Activity calls are given as the source filed them.

Data set [1] deals with NACHT, LRR and PYD domains-containing protein 3 (Homo sapiens, UniProt Q96P20). The experiment in a line: Inhibition of NLRP3 inflammasome in PMA-differentiated human THP-1 cells assessed as inhibition of LPS/nigericin-induced IL-1 beta secretion pretreated with LPS for 3 hrs followed by incubation with compound for 40 mins and later stimulated with nigericin for 35 mins by ELISA. Format: cell-based. For orientation: In an ELISA, binding on a coated surface is turned into a signal by an enzyme label.

The nature of data set [2]: Metabolic stability in human liver microsomes. Format: ADME, Microsome. (In general: Microsomes from liver hold many membrane-bound enzymes, among them those of drug oxidation.)
For data set [3], the system named is Mus musculus. The experiment in a line: Antiinflammatory activity against DSS-induced ulcerative colitis C57BL/6 mouse model assessed as decrease in colon length shortening at 30 mg/kg, ip fed with DSS for 6 days followed by administration with compound for 5 days and measured on day 11. Format: functional, organism-based. The following applies: time 5.0 day.

For data set [4], the system named is Mus musculus. The experiment in a line: Antiinflammatory activity against DSS-induced ulcerative colitis C57BL/6 mouse model assessed as decrease in disease activity index at 30 mg/kg, ip fed with DSS for 6 days followed by administration with compound for 5 days. The following applies: time 5.0 day. Format: functional, organism-based.
In data set [5] the test system is THP-1. In words: Effect on NLRP3 protein expression in PMA-differentiated human THP-1 cells at 0.5 uM pretreated with compound for 40 mins followed by LPS challenge for 3 hrs by western blot analysis. Format: functional, cell-based. The note with it: time 220.0 min. A general note: A western blot detects proteins with antibodies after separation by electrophoresis.

In data set [6] the test system is THP-1. In words: Effect on pro-IL-1beta protein expression in PMA-differentiated human THP-1 cells at 0.5 uM pretreated with compound for 40 mins followed by LPS challenge for 3 hrs by western blot analysis. The note with it: time 220.0 min. Format: functional, cell-based.

NACHT, LRR and PYD domains-containing protein 3, sequence (Q96P20 whole entry, the tested form may be a part): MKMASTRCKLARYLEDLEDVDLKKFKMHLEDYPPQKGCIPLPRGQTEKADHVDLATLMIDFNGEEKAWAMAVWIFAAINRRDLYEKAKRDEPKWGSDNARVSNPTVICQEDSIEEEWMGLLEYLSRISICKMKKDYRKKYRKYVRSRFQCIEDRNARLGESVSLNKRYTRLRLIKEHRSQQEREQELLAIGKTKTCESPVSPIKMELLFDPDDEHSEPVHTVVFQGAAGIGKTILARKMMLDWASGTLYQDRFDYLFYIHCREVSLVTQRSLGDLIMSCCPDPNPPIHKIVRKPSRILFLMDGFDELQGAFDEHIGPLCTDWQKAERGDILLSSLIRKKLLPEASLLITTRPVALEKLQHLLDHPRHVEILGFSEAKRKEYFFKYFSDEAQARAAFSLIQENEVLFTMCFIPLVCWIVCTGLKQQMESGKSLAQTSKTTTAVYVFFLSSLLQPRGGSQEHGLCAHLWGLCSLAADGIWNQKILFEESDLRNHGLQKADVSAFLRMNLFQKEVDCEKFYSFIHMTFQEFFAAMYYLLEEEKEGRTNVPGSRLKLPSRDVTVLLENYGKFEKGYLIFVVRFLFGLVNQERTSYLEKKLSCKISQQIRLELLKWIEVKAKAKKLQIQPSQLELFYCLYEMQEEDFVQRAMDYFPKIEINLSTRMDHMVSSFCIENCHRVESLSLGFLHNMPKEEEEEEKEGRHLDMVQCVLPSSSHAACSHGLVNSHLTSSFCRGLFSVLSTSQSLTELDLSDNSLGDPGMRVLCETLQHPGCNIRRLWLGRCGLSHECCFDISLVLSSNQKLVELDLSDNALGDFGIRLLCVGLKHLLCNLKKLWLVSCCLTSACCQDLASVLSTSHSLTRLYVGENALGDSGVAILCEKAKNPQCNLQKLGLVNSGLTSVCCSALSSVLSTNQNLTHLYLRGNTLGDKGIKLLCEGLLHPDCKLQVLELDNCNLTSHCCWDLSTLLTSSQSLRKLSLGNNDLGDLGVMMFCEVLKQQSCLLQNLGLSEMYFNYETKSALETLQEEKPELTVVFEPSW

The term pIC50 denotes the IC50 on a negative log10 scale, so that one unit is a factor of ten. In the case of `CC(C)c1nn(CC(=O)NC2CCOCC2)c(=O)c2cc(NC3COC3)cn12`, the pIC50 in data set [1] was less than 5.00.
Take `CC(C)c1nn(Cc2nnc(-c3cc(C(F)(F)F)cnc3Cl)o2)c(=O)c2cc3sc(Cl)cc3n12`: in data set [1], the pIC50 was 5.75.
On the same count and under the same terms, the figure for `O=C(CNC(=O)c1cc2sccc2[nH]1)NC1CCOCC1` is less than 5.00; for `O=C(CN1CCn2c(cc3sccc32)C1=O)NC1CCOCC1` it is less than 5.00.
Broadly, the half-life is the time needed for the level to fall by half in the phase considered. `CC(C)c1nn([C@H](C)c2nnc(-c3ccc(C(F)(F)F)nc3Cl)o2)c(=O)c2cc3sc(Cl)cc3n12`: in data set [2], the half-life is 59.2 min. Also, in data set [1], the pIC50 is less than 5.00.
In the case of `CC(C)c1nn(CC(=O)NC2CCOCC2)c(=O)c2cc3cc(Cl)ccc3n12`, the pIC50 in data set [1] is less than 5.00.
In the case of `CC(C)c1nn(CC(=O)NC2CCOCC2)c(=O)c2ccc(-c3ccc(Cl)s3)n12`, the pIC50 in data set [1] is less than 5.00.
Consider `CC(C)c1nn([C@@H](C)c2nnc(-c3ccc(C(F)(F)F)nc3Cl)o2)c(=O)c2cc3sc(Cl)cc3n12`, for which the pIC50 in data set [1] is less than 5.00.
As for `CC(C)c1nn(Cc2nnc(C3CCOCC3)o2)c(=O)c2cc3sc(Cl)cc3n12`, in data set [1], the pIC50 was 5.62.
Same read-out and setting: the figure for `CC(C)c1nn(CC(=O)NC2CCOCC2)c(=O)c2cc3ccccc3n12` is less than 5.00.
`CC(C)c1nn(CC(=O)NC2CCOCC2)c(=O)c2cc3sc(Cl)cc3n12` registered a half-life in data set [2] of 18.7 min. Further, the outcome in data set [3] and in data set [4] was Active.
In the case of `CC(C)(O)c1coc(S(=O)(=O)NC(=O)Nc2c3c(cc4c2CCC4)CCC3)c1`, the outcome in data set [5] and in data set [6] was inactive.
As for `CC(C)c1nn(Cc2nnc(-c3ccc(F)nc3F)o2)c(=O)c2cc3sc(Cl)cc3n12`, the half-life in data set [2] turned out to be 8.86 min.
In the case of `CC(C)c1nn(Cc2nnc(C3CCCCC3)o2)c(=O)c2cc3sc(Cl)cc3n12`, the pIC50 in data set [1] was 5.72.
As for `CC(C)c1nn(Cc2nnc(C3CCOCC3)o2)c(=O)c2cc3sccc3n12`, the pIC50 in data set [1] is less than 5.00.
Consider `CC(C)c1nn(Cc2nnc(-c3cccnc3)o2)c(=O)c2cc3sc(Cl)cc3n12`, for which the pIC50 in data set [1] is 5.72.
Same read-out and setting: the figure for `CC(C)c1nn(Cc2nnc(-c3ccncn3)o2)c(=O)c2cc3sc(Cl)cc3n12` is 5.91.
Still for that read-out and setting: the figure for `CC(C)c1nn(CC(=O)NC2CCOCC2)c(=O)c2cccn12` is less than 5.00; for `Cc1cccc(-c2nnc(Cn3nc(C(C)C)n4c(cc5sc(Cl)cc54)c3=O)o2)c1` it is less than 5.00; for `CC(C)c1nn(Cc2nnc(-c3cnccn3)o2)c(=O)c2cc3sc(Cl)cc3n12` it is 5.65.
For the molecule `CC(C)c1nn(Cc2nnc(-c3cccnc3)[nH]2)c(=O)c2cc3sc(Cl)cc3n12`, the pIC50 in data set [1] is less than 5.00.
`CC(C)c1nn(Cc2nnc(-c3cccc(C#N)c3)o2)c(=O)c2cc3sc(Cl)cc3n12`: the pIC50 in data set [1] is 6.42.
In data set [2], `CC(C)c1nn(Cc2nnc(-c3cc(F)cnc3Cl)o2)c(=O)c2cc3sc(Cl)cc3n12` displayed a half-life of 7.66 min.
Same read-out and setting: the figure for `Cc1ccc(-c2nnc(Cn3nc(C(C)C)n4c(cc5sc(Cl)cc54)c3=O)o2)c(Cl)n1` is 15.2 min.
`[2H]C([2H])(c1nnc(-c2ccc(C(F)(F)F)nc2Cl)o1)n1nc(C(C)C)n2c(cc3sc(Cl)cc32)c1=O`: in data set [2], the half-life stood at 25.1 min. Against the preceding molecule, the half-life is about 1.7-fold higher.
Turning to `CC(C)c1nn(CC(=O)NC2CCOCC2)c(=O)c2cc(Nc3ccccc3)cn12`, in data set [1], the pIC50 is less than 5.00.
On to `CC(C)c1nn(CC(=O)NC2CCOCC2)c(=O)c2ccc(-c3ccsc3)n12`, for which the pIC50 in data set [1] is less than 5.00.
With `COc1cccc(-c2nnc(Cn3nc(C(C)C)n4c(cc5sc(Cl)cc54)c3=O)o2)c1`, the pIC50 in data set [1] was less than 5.00.
